Test systems include NCI-H460 lung; T-47D breast; OVCAR-4 ovarian; KM20L2 colon; SF-539 CNS; COLO 205 colon; DMS 273 small cell lung; SK-OV-3 ovarian; A549 NSCLC; NCI/ADR-RES ovarian.
Holding throughout (assay): NCI anticancer screen, dose series, 48 h

Where “and” joins values, the source holds several entries; their conditions need not be identical. Equal entries are not always repeated.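 Five concentrations, 48 hours, 96-well plates. The concentration for 50% growth inhibition is given as GI50. TGI denotes the concentration required for complete inhibition of growth.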

As to `O=C1/C(=C/c2ccccc2)CN(C(=O)CCN2CCCC2)C/C1=C\c1ccccc1`, the TGI in the assay on NCI-H460 lung came out at 4.52 µM; in the assay on T-47D breast it was 5.61 µM; with OVCAR-4 ovarian it was 4.78 µM; in the assay with KM20L2 colon it was 3.91 µM; in the assay on SF-539 CNS, 5.4 µM; with COLO 205 colon, 3.25 µM. In addition, the TGI in the assay on DMS 273 small cell lung worked out at 3.58 µM; in the assay with SK-OV-3 ovarian, 20.5 µM; in the assay with A549 NSCLC, 14.6 µM.

Regarding `CC(C)=CCC(OC(=O)C=C(C)C)C1=CC(=O)c2c(O)ccc(O)c2C1=O` (stereo unspecified), the GI50 in the assay with NCI/ADR-RES ovarian was 3.68 µM; in the assay on NCI-H460 lung, 5.21 µM; in the assay on OVCAR-4 ovarian, 1.73 µM; with SF-539 CNS it was 2.02 µM; with COLO 205 colon it was 0.751 µM; with SK-OV-3 ovarian, 21.2 µM. The TGI was 29.5 µM and 3.16 µM in the assay with NCI/ADR-RES ovarian; 21.1 µM and 6.53 µM in the assay with NCI-H460 lung; 4.16 µM and 1.48 µM in the assay with OVCAR-4 ovarian; 5.64 µM in the assay with KM20L2 colon; 4.46 µM and 4.93 µM in the assay with SF-539 CNS; 2.12 µM and 1.37 µM in the assay on COLO 205 colon. In addition, the TGI with DMS 273 small cell lung is 5.53 µM; in the assay on SK-OV-3 ovarian, 49.8 µM and 12.4 µM; in the assay with A549 NSCLC, 18.7 µM.

With `O=C1CC(c2[nH]nc3ccccc23)C(=O)N1c1ccccc1` (stereo unspecified), the TGI in the assay with NCI/ADR-RES ovarian, with NCI-H460 lung, with T-47D breast, in the assay on OVCAR-4 ovarian, in the assay with KM20L2 colon and in the assay on SF-539 CNS was greater than 100 µM in each case. In addition, the TGI in the assay with COLO 205 colon, in the assay with DMS 273 small cell lung, in the assay on SK-OV-3 ovarian and in the assay with A549 NSCLC was greater than 100 µM throughout.

In the case of `CC(C)Cc1ccc(C(C)CC2=CCC(CN(C)C)C2=O)cc1` (stereo unspecified), the TGI was determined as 43.7 µM in the assay on NCI/ADR-RES ovarian; 48.9 µM in the assay with NCI-H460 lung; 4.7 µM in the assay on T-47D breast; 41.6 µM in the assay on OVCAR-4 ovarian; 21.2 µM in the assay with KM20L2 colon; 30.9 µM in the assay on SF-539 CNS. Further, the TGI stood at 6.77 µM in the assay on COLO 205 colon, 14.9 µM in the assay on DMS 273 small cell lung, 31.7 µM in the assay on SK-OV-3 ovarian and 35.2 µM with A549 NSCLC.

Regarding `COc1ccc(C(=O)C(CC2C(=O)NC(=O)NC2=O)c2ccc(OC)cc2)cc1` (stereo unspecified), the TGI with NCI-H460 lung, with OVCAR-4 ovarian, in the assay on KM20L2 colon, in the assay on SF-539 CNS, with COLO 205 colon and in the assay with DMS 273 small cell lung was greater than 100 µM in each case. The TGI in the assay with SK-OV-3 ovarian and in the assay on A549 NSCLC was greater than 100 µM throughout.

On to `Cc1cc(N(CCC#N)CCC#N)ccc1N=Nc1ccc(Br)cc1`, for which the TGI in the assay with NCI-H460 lung is greater than 100 µM; in the assay on OVCAR-4 ovarian, greater than 100 µM; in the assay on KM20L2 colon it was greater than 100 µM; in the assay with SF-539 CNS, greater than 51.9 µM; with COLO 205 colon, greater than 100 µM; in the assay on DMS 273 small cell lung, greater than 31.6 µM. Besides, the TGI was 11.7 µM in the assay with SK-OV-3 ovarian and greater than 45.9 µM in the assay on A549 NSCLC.

In the case of `CC(C)CCCC(C)[C@H]1CCC2[C@@H]3CCC4Nc5c(cnn5-c5ccccc5)C[C@]4(C)C3CC[C@@]21C` (stereo partly specified), the TGI in the assay on NCI-H460 lung was greater than 100 µM; with OVCAR-4 ovarian, 80.1 µM; with KM20L2 colon it was greater than 100 µM; in the assay with SF-539 CNS, greater than 100 µM; in the assay on COLO 205 colon, 42 µM; in the assay on DMS 273 small cell lung, 8.08 µM. Moreover, the TGI with SK-OV-3 ovarian and in the assay on A549 NSCLC was greater than 100 µM each time.

Consider `CCOC(=O)CCn1ncc(Cl)c(Cl)c1=O`, for which the TGI was 30.3 µM in the assay with NCI-H460 lung; 2.9 µM in the assay on OVCAR-4 ovarian; 31.4 µM in the assay on KM20L2 colon; 27.3 µM with SF-539 CNS; 25.6 µM with COLO 205 colon; 27 µM with DMS 273 small cell lung. The TGI stood at 42.5 µM with SK-OV-3 ovarian and 32.9 µM in the assay on A549 NSCLC.

The record behind these values is PubChem BioAssay (NCI).
